Converted amounts (≈) assume the structure as drawn. Positions of bridges follow the written chain, without caps; N, C: chain ends. Residues, ends and D or L forms follow the SMILES beside them.
How the values were obtained:
E. coli ML-35p = details: for Fold reduction of antibacterial activity in the presence of serum: MHB + 0.9% NaCl with 25% FBS versus without
Experimental: Initially, antimicrobial activity of abarenicin and UuBRI-21 was evaluated against the reference strain of E. coli (ML-35p) under various conditions (Table 1). Minimal inhibitory concentrations (MICs) were determined via two-fold serial dilutions in 96-well polystyrene plates. Serial dilutions were made in 0.1% bovine serum albumin (BSA) to minimize the absorption of peptides on the surface of plate wells. Mueller–Hinton broth (MHB) supplemented with 0.9% NaCl was used as the standardized medium.
(§1) Bacterial cultures were grown in MHB at 37 °C until the culture reached an optical density OD600 of 1.0 and diluted with the broth so that to reach a final cell concentration of 10^6 CFU/mL. Then 50 μL of the test culture were added to 50 μL of aqueous solutions of the peptides, previously diluted in 0.1% sterilized bovine serum albumin (BSA) to reduce non-specific binding of the peptides to the surface of the plates. Next, the plate was incubated for 24 h at 37 °C and 950 rpm on the plate thermoshaker (Biosan). The values of the minimum inhibitory concentrations (MIC) were determined as the minimum concentration of the peptide, at which there is no culture growth. The results were expressed as the median values of three independent experiments performed in triplicate.

[1] = system: P. aeruginosa PAO1 mature biofilms; assay: Effect on mature biofilms, viability by MTT; details: P. aeruginosa PAO1 pre-formed biofilm, 2-h exposure
Experimental: Biofilm viability was measured by tetrazolium salt reduction (right panel). Values are presented as means ± the standard deviation (SD) of three independent experiments.
The effect of peptides on pre-formed biofilms was evaluated as follows. Biofilms were grown on a 96-well plate at 32 °C for 24 h and stirred at 120 rpm to ensure biofilm formation primarily on the wall of the wells. […] Bacterial survival in the biofilms after 2-h exposure was evaluated via a MTT assay after incubation with a tested peptide. Then, wells were rinsed with sterile water, treated with an MTT solution (Sigma, Kawasaki, Kanagawa, Japan) in PBS, and incubated for 4 h at 37 °C. Next, the medium was removed. The resulting formazan crystals were dissolved in a mixture of EtOH and DMSO (1:1) for 10 min. The optical density of the solution was measured at 570 nm. Bacterial survival was calculated as percent relative to samples without antimicrobial agent. All data were obtained from at least three independent experiments in 3 repetitions.

[2] = RP-HPLC retention time as measure of hydrophobicity; format: physicochemical; details: chromatographic, semipreparative RP-HPLC, C18 column, linear gradient 5 to 80% (v/v) acetonitrile in water with 0.1% TFA within 50 minutes; used as measure of hydrophobicity
Experimental: Table S1. Characteristics of the recombinant AMPs.
1 Mean Kyte–Doolittle hydrophobicity index (GRAVY) was calculated using the Expasy ProtParam tool. The maximum and minimum values of this index are +4.5 and -4.5 for poly-Ile and poly-Arg sequences, respectively. 2 Retention times were measured using semipreparative reversed-phase high-performance liquid chromatography (RP - HPLC) on a C18 column with a linear gradient from 5 to 80% ( v/v) acetonitrile in water containing 0.1% trifluoroacetic […]
acid (TFA) within 50 minutes. […]

Gram-positive bacteria = format: cell-based; details: 24 h
Experimental: as §1, with “The antimicrobial activity of the peptides was determined via the method of two-fold serial dilutions in sterile 96-well flat-bottom polystyrene microplates (Eppendorf #0030730011) in Mueller–Hinton broth (MHB, Sigma, Kawasaki, Kanagawa, Japan) supplemented with 0.9% NaCl. Bacterial” for “Bacterial”

Gram-negative bacteria = assay: Geometric mean of MICs, Gram-negative panel; format: cell-based
Experimental: as §1, with “The antimicrobial activity of the peptides was determined via the method of two-fold serial dilutions in sterile 96-well flat-bottom polystyrene microplates (Eppendorf #0030730011) in Mueller–Hinton broth (MHB, Sigma, Kawasaki, Kanagawa, Japan) supplemented with 0.9% NaCl. Bacterial” for “Bacterial”

E. coli 3421/E19 = assay: Neutropenic mice peritonitis model; format: in vivo, BALB/c mice; details: for Efficacy in the neutropenic peritonitis model (in words): single i.v. dose of 10 mg/kg, E. coli 3421/E19
Experimental: Immune-deficient mice were inoculated intraperitoneally (i.p.) with bacterial suspension. Antimicrobial agent was administered 1 h post-infection, and colony counts in blood and peritoneal fluid (PF) were determined 5 h later.
(A) The mice peritonitis model. […] Horizontal bars indicate means ± SD.
Food and water were provided ad libitum.
CFU counts were determined from blood and peritoneal fluid (PF) 5 h after treatment. The mice were euthanized by CO2 asphyxiation and blood was collected by axillary cut down. A total of 2 mL sterile saline was injected i.p. and the abdomen gently massaged before it was opened, fluid sampled with a pipette, serially diluted and placed on Endo agar supplemented with 20 µg/mL of tetracycline for CFU identification.

E. coli ATCC 25922 = assay: Mice septicemia model, survival; details: BALB/c mice, n = 8, E. coli ATCC 25922 i.p. with 2.5% mucin
Experimental: Ciprofloxacin (the single dose of 10 mg/kg) and saline were used as the positive and negative controls, respectively. […] Mice were controlled once daily for their health status during 7 post-infection days.
Then, we examined an efficacy of AMPs in the mice septicemia model using 8 animals in a group (Figure 10B).
Experiments were performed with female 8–10-week-old BALB/c mice (22–24 g, “Andreevka” laboratory animal nursery FMBA, Russia). […] All animal experiments were performed at the State Research Center for Applied Microbiology and Biotechnology (SRCAMB) in Obolensk, Russia. The animals were housed in groups of 5 in polycarbonate cages. Food and water were provided ad libitum.
A total of 4 groups with 8 animals were used. The first group received ciprofloxacin (Sigma, Kawasaki, Kanagawa, Japan) administered i.p. once (1 h post-infection) at a dose of 10 mg/kg. The second group received saline (as a vehicle control) administered i.p. once (1 h post-infection). […] Survival was monitored for 7 days. After that survived animals were euthanized by CO2 asphyxiation.

human red blood cells = format: cell-based
Experimental: Figure 4 (A) Hemolytic effect on human red blood cells after 2 h incubation (hemoglobin release assay). (B) Cytotoxicity toward transformed human embryonic kidney cells after 20 h incubation (MTT-assay). The positive control used was 0.1% Triton X-100 and sterile PBS as a negative control. Melittin was used as an additional positive control. The data are presented as the mean ± SD of three independent experiments.
The hemolytic activity of compounds was performed using human red blood cells (hRBS) of healthy donor. Fresh blood was centrifuged to separate the erythrocyte fraction for 15 min at 500 g and washed three times with cold phosphate-buffered saline (PBS) (pH 7.4), after which an 8% (v/v) suspension of erythrocytes in PBS was prepared. Then, 50 µL of erythrocyte suspension was added to the test peptides, previously were dissolved in 50 µL of 0.1% BSA. The plate was incubated for 1.5 h at 37 °C and 950 rpm on the plate thermoshaker. After incubation, the plates were centrifuged for 15 min at 1000 g to settle intact erythrocytes. Next, aliquots of the supernatant were transferred to another plate to measure the amount of hemoglobin release by the absorbance of the solution at 405 nm. As “zero lysis” we used the supernatant obtained after centrifugation of erythrocytes incubated in a PBS solution without the addition of a peptide. As “100% lysis”, we used the supernatant obtained after centrifugation of erythrocytes incubated in a 0.1% Triton X-100, causing their complete lysis. The assays were conducted three times. The quantitative data were presented as an average means with standard deviations. Hemolysis(%)=OD405(compound)−OD405(zerolysis)/OD405(100%lysis)−OD405(zerolysis)×100%

SMILES	Fold reduction of antibacterial activity in the presence of serum (E. coli ML-35p)	RP-HPLC Retention Time [2]	Minimum inhibitory concentration (MIC): Gram-positive Geometric mean (Gram-positive bacteria)	Efficacy in the neutropenic peritonitis model (in words) (E. coli 3421/E19)	Hemolytic activity (in words) (human red blood cells)	also measured
CC[C@H](C)[C@@H]1NC(=O)[C@H](CCCNC(=N)N)NC(=O)[C@H](C)NC(=O)CNC(=O)[C@H](CC(N)=O)NC(=O)[C@H](CCCNC(=N)N)NC(=O)[C@H](CCCNC(=N)N)NC(=O)[C@H](C)NC(=O)[C@@H]2CSSC[C@H](NC1=O)C(=O)N[C@@H](Cc1ccc(O)cc1)C(=O)N[C@@H](CCCNC(=N)N)C(=O)N[C@@H](CCCNC(=N)N)C(=O)N[C@H](C(=O)N[C@@H](CC(N)=O)C(=O)O)CSSC[C@H](NC(=O)[C@H](Cc1ccc(O)cc1)NC(=O)CN)C(=O)N[C@@H](Cc1ccccc1)C(=O)N[C@@H]([C@@H](C)O)C(=O)N[C@@H](C)C(=O)N2 [Ap11] (H-GYCFTACARRNGARICYRRCN-OH; disulfide 3-20, 7-16)	4 fold	25.17 min	4 µM (≈ 9.8 µg/mL)	ineffective	–	Residual viability of bacteria in mature biofilm ([1]; 16 µM): about 20%; Fold reduction in the antimicrobial activity compared to Ap4 (Gram-negative bacteria; Gram-negative GM values): at least 5 fold
O=C(O)c1cn(C2CC2)c2cc(N3CCNCC3)c(F)cc2c1=O [ciprofloxacin, reference compound]	–	–	–	–	–	Effect on bacteria inside mature biofilm (in words) [1]: not able to impair bacteria inside biofilm; Survival (in words) (E. coli ATCC 25922; single i.p. dose of 10 mg/kg 1 h post-infection): survival of all mice
CC[C@H](C)[C@@H]1NC(=O)[C@H](CCCNC(=N)N)NC(=O)[C@H](C(C)C)NC(=O)CNC(=O)[C@H](CC(N)=O)NC(=O)[C@H](CCCNC(=N)N)NC(=O)[C@H](Cc2ccc(O)cc2)NC(=O)[C@H](Cc2ccc(O)cc2)NC(=O)[C@@H]2CSSC[C@H](NC1=O)C(=O)N[C@@H](C(C)C)C(=O)N[C@@H](CCCNC(=N)N)C(=O)N[C@@H](Cc1ccc(O)cc1)C(=O)N[C@H](C(=O)N[C@@H](CC(N)=O)C(=O)O)CSSC[C@H](NC(=O)[C@H](Cc1ccccc1)NC(=O)CN)C(=O)NCC(=O)N[C@@H](Cc1ccc(O)cc1)C(=O)N[C@@H](C)C(=O)N2 [UuBRI-21] (H-GFCGYACYYRNGVRICVRYCN-OH; disulfide 3-20, 7-16)	16 fold	28.48 min	2 µM (≈ 4.95 µg/mL)	lack of effectivity	moderate hemolytic activity	–
CC(C)[C@@H]1NC(=O)[C@H](Cc2ccc(O)cc2)NC(=O)[C@H](Cc2c[nH]c3ccccc23)NC(=O)[C@@H](NC(=O)[C@H](Cc2ccccc2)NC(=O)CN)CSSC[C@@H](C(=O)N[C@@H](CC(N)=O)C(=O)O)NC(=O)[C@H](CCCNC(=N)N)NC(=O)[C@H](CCCNC(=N)N)NC(=O)[C@H](Cc2ccc(O)cc2)NC(=O)[C@@H]2CSSC[C@H](NC1=O)C(=O)N[C@@H](C)C(=O)N[C@@H](CCCNC(=N)N)C(=O)N[C@@H](CCCNC(=N)N)C(=O)N[C@@H](CC(N)=O)C(=O)NCC(=O)N[C@@H](C)C(=O)N[C@@H](CCCNC(=N)N)C(=O)N[C@@H](C(C)C)C(=O)N2 [AA139, reference compound] (H-GFCWYVCARRNGARVCYRRCN-OH; disulfide 3-20, 7-16)	4 fold	25.67 min	4 µM (≈ 10.2 µg/mL)	effective	–	Minimum Inhibitory Concentration, MHB + 0.9% NaCl + 25% FBS (E. coli ML-35p; Table 1, medium with 25% fetal bovine serum): 1 µM; Minimum Inhibitory Concentration, MHB + 0.9% NaCl (E. coli ML-35p; Table 1, without FBS, dilutions in 0.1% BSA): 0.25 µM; Therapeutic efficacy (survival) after one-week experiment (E. coli ATCC 25922; peptide i.p. 10 mg/kg at 1 and 4 h post-infection, 7 days): 87.5%; Bacterial burden in mice blood (in words) (E. coli 3421/E19; neutropenic BALB/c mice, n = 5, i.p. infection, single i.v. dose 1 h post-infection (AMPs 10 mg/kg, polymyxin B 5 mg/kg), CFU 5 h after treatment): complete reduction; Reduction of the CFU level in peritoneal fluid (PF) (E. coli 3421/E19; neutropenic BALB/c mice, n = 5, single i.v. dose (AMPs 10 mg/kg, polymyxin B 5 mg/kg), CFU 5 h after treatment): ~ 5 log
CC[C@H](C)[C@@H]1NC(=O)[C@H](CCCNC(=N)N)NC(=O)[C@H](C(C)C)NC(=O)CNC(=O)[C@H](CC(N)=O)NC(=O)[C@H](CCCNC(=N)N)NC(=O)[C@H](CCCNC(=N)N)NC(=O)[C@H](Cc2ccc(O)cc2)NC(=O)[C@@H]2CSSC[C@H](NC1=O)C(=O)N[C@@H](Cc1ccc(O)cc1)C(=O)N[C@@H](CCCNC(=N)N)C(=O)N[C@@H](CCCNC(=N)N)C(=O)N[C@H](C(=O)N[C@@H](CC(N)=O)C(=O)O)CSSC[C@H](NC(=O)[C@H](Cc1ccc(O)cc1)NC(=O)CN)C(=O)N[C@@H](Cc1ccccc1)C(=O)N[C@@H]([C@@H](C)O)C(=O)N[C@@H](C)C(=O)N2 [Ap4] (H-GYCFTACYRRNGVRICYRRCN-OH; disulfide 3-20, 7-16)	–	24.79 min	0.63 µM (≈ 1.62 µg/mL)	–	ability to lyse hRBCs is stronger	Minimum inhibitory concentration (MIC): Gram-negative Geometric mean (Gram-negative bacteria; geometric mean (GM) of MICs against the 14 Gram-negative strains of Figure 2): 0.13 µM (≈ 0.334 µg/mL)

Source: PMC9410094 (Marine Drugs, 2022)
